Experimental data: patent publication US7459444B2, “Inhibitors of chymase” (Janssen Pharmaceutica N.V., priority 2004, dated 2008)

Biological target: T1, human skin chymase (Homo sapiens, UniProt P23946)
T1 construct: using human skin chymase (Cortex Biochem); purchased Cortex Biochem
T1 sequence (P23946 22-247): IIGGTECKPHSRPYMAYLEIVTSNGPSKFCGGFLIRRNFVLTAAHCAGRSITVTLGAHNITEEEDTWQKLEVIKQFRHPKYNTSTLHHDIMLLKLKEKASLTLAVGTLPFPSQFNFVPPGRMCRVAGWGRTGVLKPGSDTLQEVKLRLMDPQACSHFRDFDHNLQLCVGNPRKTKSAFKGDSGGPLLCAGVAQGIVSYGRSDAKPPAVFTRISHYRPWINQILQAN
Assay: Enzyme-catalyzed hydrolysis assay (chymase inhibition)
Type: biochemical
Conditions: 10 nM enzyme, 0.7 mM Suc-Ala-Ala-Pro-Phe-pNa, pH 8.0, 37° C., 30 minutes
Method: Enzyme-catalyzed hydrolysis rates were measured spectro-photometrically using human skin chymase (Cortex Biochem), a chromogenic substrate (Suc-Ala-Ala-Pro-Phe-pNa) (Bachem) in aqueous buffer (450 mM Tris, 1800 mM NaCl, pH 8.0), and a microplate reader (Molecular Devices). […] Percent inhibition was calculated by comparing the initial reaction slopes of the samples without inhibitor to those with inhibitor. IC50 values were determined using a four parameter fit logistics model. The term “NT” indicates a compound that was not tested.

Going from `O=C(NCc1ccccc1)OCc1cc2ccccc2cc1NC(=O)C(c1cccc2ccccc12)P(=O)(O)O` (centres unmarked) [Cpd 72, [(3-Benzylcarbamoyloxymethyl-naphthalen-2-ylcarbamoyl)-naphthalen-1-yl-methyl]-phosphonic acid] to `O=C(Nc1ccc2[nH]ccc2c1)C(c1cccc2ccccc12)P(=O)(O)O` (centres unmarked) [Cpd 129], the IC50 rises from 1.3 ± 0.61 µM to 7.4 µM (5.7-fold). The first is the more potent here.

First: CN(Cc1ccccc1)C(=O)c1cc2ccccc2cc1NC(=O)C(c1cccc2ccccc12)P(=O)(O)O (centres unmarked) [Cpd 111]
Second: O=C(Nc1ccc2ccccc2c1)C(c1csc2ccc(Cl)cc12)P(=O)(O)CCCCc1ccccc1 (centres unmarked) [Cpd 51]
The IC50 of the first is 10-fold higher: 4.62 µM for the first, 0.46 ± 0.06 µM for the second. The second is the more potent here.

Compared with `COc1cc(/C=C/NC(=O)C(c2csc3ccc(Cl)cc23)P(C)(=O)O)cc(OC)c1` (centres unmarked) [Cpd 168], `COc1ccc(CCN(C)C(=O)c2cc3ccccc3cc2NC(=O)C(c2cccc3ccccc23)P(=O)(O)O)cc1OC` (centres unmarked) [Cpd 115] is 910-fold higher in IC50: 0.0059 ± 0.01 µM for the first, 5.36 µM for the second.

First: [(5-Chloro-benzo[b]thiophen-3-yl)-(naphthalen-2-ylcarbamoyl)-methyl]-carbamate [Cpd 80]
Second: CN(Cc1ccccc1)Cc1cc2ccccc2cc1NC(=O)C(c1cccc2ccccc12)P(=O)(O)O (centres unmarked) [Cpd 142]
The IC50 of the first is 5.8-fold lower: 1.65 ± 0.68 µM for the first, 9.54 ± 4.2 µM for the second.

Going from `O=C(Nc1ccc2cc(Br)ccc2c1)C(c1csc2ccc(Cl)cc12)P(=O)(O)O` (centres unmarked) [Cpd 67] to `CP(=O)(O)C(C(=O)Nc1ccc2ccccc2c1)c1c(C(=O)NCc2ccccc2)sc2ccccc12` (centres unmarked) [Cpd 127], the IC50 rises from 0.92 ± 0.25 µM to 7 ± 1.1 µM (7.6-fold). The first is the more potent here.

Going from `O=C(N/C=C/c1ccccc1)C(c1cccc2ccccc12)P(=O)(O)O` (centres unmarked) [Cpd 37] to `O=C(Nc1cc2ccccc2cc1C(=O)N1CCC(n2nnc3ccccc32)CC1)C(c1cccc2ccccc12)P(=O)(O)O` (centres unmarked) [Cpd 100], the IC50 rises from 0.25 ± 0.12 µM to 3 ± 1.43 µM (12-fold). The first is the more potent here.

First: CP(=O)(O)C(C(=O)N/C=C/c1cc(F)cc(F)c1)c1csc2ccc(Cl)cc12 (centres unmarked) [Cpd 162]
Second: O=C(Nc1cc2ccccc2cn1)C(c1cccc2ccccc12)P(=O)(O)O (centres unmarked) [Cpd 137]
The IC50 of the first is 960-fold lower: 0.009 µM for the first, 8.66 µM for the second. The first is the more potent here.

Going from `O=C(Nc1cc2ccccc2cc1C(=O)N1CCCC1c1ccccc1)C(c1cccc2ccccc12)P(=O)(O)O` (centres unmarked) [Cpd 131] to `CP(=O)(O)C(C(=O)N/C=C/c1c(F)cccc1F)c1csc2ccc(Cl)cc12` (centres unmarked) [Cpd 156], the IC50 falls from 7.68 µM to 0.036 ± 0.01 µM (210-fold). The second is the more potent here.

Compared with `Cc1ccccc1C=CNC(=O)C(c1csc2ccc(Cl)cc12)P(C)(=O)O` (centres unmarked) [Cpd 155], `O=C(N/C=C/c1cccnc1)C(c1csc2ccc(Cl)cc12)P(=O)(O)O` (centres unmarked) [Cpd 25] is 3.1-fold lower in IC50: 0.34 ± 0.04 µM for the first, 0.109 ± 0.03 µM for the second.

First: O=C(Nc1cc(NC(=O)C(c2cccc3ccccc23)P(=O)(O)O)cc2ccccc12)C1CCN(C(=O)c2ccc3ccccc3c2)CC1 (centres unmarked) [Cpd 8, [(4-{[1-(Naphthalene-2-carbonyl)-piperidine-4-carbonyl]-amino}-naphthalen-2-ylcarbamoyl)-naphthalen-1-yl-methyl]-phosphonic acid]
Second: O=C(NCc1ccccc1)c1cc2ccccc2cc1NC(=O)C(c1cccc2ccccc12)P(=O)(O)O (centres unmarked) [Cpd 119, [(3-Benzylcarbamoyl-naphthalen-2-ylcarbamoyl)-naphthalen-1-yl-methyl]-phosphonic acid]
The IC50 of the first is 280-fold lower: 0.021 ± 0.01 µM for the first, 5.8 µM for the second. The first is the more potent here.

Going from `O=C(Nc1cccc(Oc2ccccc2)c1)C(c1cccc2ccccc12)P(=O)(O)O` (centres unmarked) [Cpd 138] to `CP(=O)(O)C(C(=O)N/C=C/c1ccccc1NC(=O)NC(N)=O)c1csc2ccc(Cl)cc12` (centres unmarked) [Cpd 159], the IC50 falls from 8.7 µM to 3 ± 0.19 µM (2.9-fold). The second is the more potent here.

First: O=C(Nc1ccc2ccccc2c1)C(c1csc2ccc(Cl)cc12)P(=O)(O)CCCc1ccc(O)cc1 (centres unmarked) [Cpd 43]
Second: CP(=O)(O)C(C(=O)NC=Cc1ccccc1[N+](=O)[O-])c1csc2ccc(Cl)cc12 (centres unmarked) [Cpd 147]
The IC50 of the first is 4.1-fold lower: 0.35 ± 0.07 µM for the first, 1.44 ± 0.48 µM for the second.

Compared with `O=C(Nc1ccccc1)OCc1cc2ccccc2cc1NC(=O)C(c1cccc2ccccc12)P(=O)(O)O` (centres unmarked) [Cpd 94], `Cc1ccc2scc(C(C(=O)Nc3ccc4ccccc4c3)P(=O)(O)O)c2c1` (centres unmarked) [Cpd 5] is 140-fold lower in IC50: 2.75 µM for the first, 0.019 ± 0.005 µM for the second.

`O=C(Nc1ccc2ccccc2c1)C(c1csc2ccc(Cl)cc12)P(=O)(O)CCCc1ccccc1` (centres unmarked) [Cpd 48] and `O=P(O)(O)C(C(=S)Nc1ccc2ccccc2c1)c1csc2ccc(Cl)cc12` (centres unmarked) [Cpd 45, [(5-Chloro-benzo[b]thiophen-3-yl)-(naphthalen-2-ylthiocarbamoyl)-methyl]-phosphonic acid] are within error of each other in IC50: 0.421 ± 0.151 µM for the first, 0.371 ± 0.11 µM for the second.

First: O=C(Nc1ccc2ncccc2c1)C(c1cccc2ccccc12)P(=O)(O)O (centres unmarked) [Cpd 79]
Second: O=C(Nc1ccc2ccccc2c1)OCc1cc2ccccc2cc1NC(=O)C(c1cccc2ccccc12)P(=O)(O)O (centres unmarked) [Cpd 105]
The IC50 of the first is 2.6-fold lower: 1.6 µM for the first, 4.1 µM for the second.

Compared with `CN(C(=O)c1cc2ccccc2cc1NC(=O)C(c1cccc2ccccc12)P(=O)(O)O)C1CCCC1` (centres unmarked) [Cpd 91], `CP(=O)(O)C(C(=O)NC=Cc1ccccc1NC(N)=O)c1csc2ccc(Cl)cc12` (centres unmarked) [Cpd 158, {(5-Chloro-benzo[b]thiophen-3-yl)-[2-(2-ureido-phenyl)-vinylcarbamoyl]-methyl}-methyl-phosphinic acid] is 2.6-fold higher in IC50: 2.32 µM for the first, 6 ± 1.9 µM for the second.

`Cn1cc(C(C(=O)Nc2ccc3ccccc3c2)P(=O)(O)O)c2cc(Br)ccc21` (centres unmarked) [Cpd 13] and `CP(=O)(O)C(C(=O)N/C=C/c1cccc(F)c1)c1csc2ccc(Cl)cc12` (centres unmarked) [Cpd 15] are within error of each other in IC50: 0.04 ± 0.02 µM for the first, 0.052 ± 0.015 µM for the second.

First: O=C(Nc1ccc2ccccc2c1)C(c1csc2ccc(Cl)cc12)S(=O)(=O)O (centres unmarked) [Cpd 50, [(5-Chloro-benzo[b]thiophen-3-yl)-(naphthalen-2-ylcarbamoyl)-methyl]-sulfonic acid]
Second: O=C(Nc1cc2ccccc2cc1NCCCCCc1ccccc1)C(c1cccc2ccccc12)P(=O)(O)O (centres unmarked) [Cpd 110]
The IC50 of the first is 10-fold lower: 0.43 ± 0.15 µM for the first, 4.45 µM for the second.

First: Cn1cc(C(C(=O)Nc2ccc3ccccc3c2)P(=O)(O)O)c2cc(-c3ccc(F)cc3)ccc21 (centres unmarked) [Cpd 98, [[5-(4-Fluoro-phenyl)-1-methyl-1H-indol-3-yl]-(naphthalen-2-ylcarbamoyl)-methyl]-phosphonic acid]
Second: O=C(Nc1ccc2ccccc2c1OCC(=O)N1CCC(c2ccccc2)CC1)C(c1cccc2ccccc12)P(=O)(O)O (centres unmarked) [Cpd 114, (Naphthalen-1-yl-{1-[2-oxo-2-(4-phenyl-piperidin-1-yl)-ethoxy]-naphthalen-2-ylcarbamoyl}-5 methyl)-phosphonic acid]
The IC50 of the first is 1.7-fold lower: 2.9 µM for the first, 4.9 ± 1.34 µM for the second.

`O=C(Nc1ccc2ccccc2c1)C(c1cn(-c2ccccc2)c2ccccc12)P(=O)(O)O` (centres unmarked) [Cpd 82, [(Naphthalen-2-ylcarbamoyl)-(1-phenyl-1H-indol-3-yl)-methyl]-phosphonic acid] and `O=C(Nc1ccc2ccccc2c1)C(c1csc2cc(Br)ccc12)P(=O)(O)O` (centres unmarked) [Cpd 76] are within error of each other in IC50: 1.7 ± 0.41 µM for the first, 1.43 ± 0.451 µM for the second.

Compared with `CP(=O)(O)C(C(=O)NC=Cc1ccc(C#N)cc1)c1csc2ccc(Cl)cc12` (centres unmarked) [Cpd 157], `O=C(Nc1ccc2c(c1)Cc1ccccc1-2)C(c1cccc2ccccc12)P(=O)(O)O` (centres unmarked) [Cpd 106] is 2.6-fold lower in IC50: 11 ± 1.2 µM for the first, 4.3 µM for the second. The second is the more potent here.

Compared with `O=C(Nc1cc2ccccc2cc1C(=O)N1CCC(n2c(=O)[nH]c3ccccc32)CC1)C(c1cccc2ccccc12)P(=O)(O)O` (centres unmarked) [Cpd 93], `COc1cccc(/C=C/NC(=O)C(c2csc3ccc(Cl)cc23)P(C)(=O)O)c1` (centres unmarked) [Cpd 154] is 75-fold lower in IC50: 2.7 µM for the first, 0.036 ± 0.05 µM for the second.

`O=C(Nc1cc2ccccc2cc1C(=O)N1CCC(c2ccccc2)C1)C(c1cccc2ccccc12)P(=O)(O)O` (centres unmarked) [Cpd 87] and `O=C(O)C(C(=O)Nc1ccc2ccccc2c1)c1csc2ccc(Cl)cc12` (centres unmarked) [Cpd 84, [(5-Chloro-benzo[b]thiophen-3-yl)-(naphthalen-2-ylcarbamoyl)-methyl]-carboxylic acid] are within 1.5-fold of each other in IC50: 2.04 µM for the first, 1.75 ± 0.285 µM for the second.

`O=C(COc1cc2ccccc2cc1NC(=O)C(c1cccc2ccccc12)P(=O)(O)O)NCCCc1ccccc1` (centres unmarked) [Cpd 130] gave an IC50 of 7.44 ± 3.73 µM.
